Here are results for one compound from patent US11707519B2, “Phosphorylated heptose compounds: process for their preparation and use” (priority 2017, dated 2023).

Assay [1] relates to TbpB originating from group B N. meningitidis. Description: Adjuvant test: mice immunized with TbpB, serum IgG titers to TbpB by ELISA. The class given is in vivo, C57BL/6NCrl mice. As to conditions: 25 μg TbpB with adjuvant intramuscularly, doses D0, D21, D28; serum D14, D28, D35; compared with TbpB alone and TbpB+alum; FIG. 38A. The protocol: (§1) FIG. 38: 6-week-old male C57BL/6NCrl mice were immunized with TbpB originating from group B N. meningitidis, purified from recombinant E. coli. All groups were immunized with 25 μg of TbpB with or without adjuvant, in a total volume of 30 μL intramuscularly: TbpB alone, TbpB+alum, and TbpB+HBP (200 μg). Three doses were given: D0, D21, and D28. Serum was collected at D0 prior to immunization, D14, D28, and D35 and then examined by ELISA for IgG titers to TbpB (FIG. 38A). Mice were challenged on D36 with 5×10^7 of N. meningitidis strain expressing the homologous TbpB. Mice were injected with human transferrin (200 μL of 8 mg/mL) as this is critical for the development of sepsis in this model. Mice were monitored at the 1 h, 12 h, 18 h, 24 h, and 36 h time points. At 1 h, blood was collected to enumerate CFUs (FIG. 38B). Clinical scores were collected at 12 h post challenge (FIG. 38C).
(§2) HBP can act as an adjuvant. 6-week-old male C57BL/6NCrl mice were immunized with TbpB originating from group B N. meningitidis, purified from recombinant E. coli. All groups were immunized with 25 μg of TbpB with or without adjuvant, in a total volume of 30 μL intramuscularly TbpB, TbpB+alum, and TbpB+HBP (equimolar to 200 μg). Three doses were given: D0, D21, D28. […] Mice were monitored at the 1 h, 12 h, 18 h, 24 h, and 36 h time points. […]
In general terms: ELISA stands for enzyme-linked immunosorbent assay.

The next assay relates to THP-1 cells. Kind of assay: IL-8 ELISA after stimulation of human macrophage cells (THP-1). The conditions noted are these: THP-1, 30 μM or 150 μM synthetic compound, 20 minutes with digitonin, then 6 hours; FIG. 37. The class given is cell-based. The protocol:
(§3) FIG. 37: Stimulation of human macrophages by compounds/products according to the invention. Human macrophage cells (THP-1) were stimulated for 20 minutes in permeabilization buffer (5 μg/mL digitonin) in the presence of water, 39.8 μM of the Nod1 agonist C12-iE-DAP (which stimulates in a TIFA-independent manner), or either 30 μM or 150 μM of synthetic compound according to the invention. Treatment was removed, cells were washed, and cells were incubated for 6 hours in complete media before the IL-8 levels in culture supernatants were measured by ELISA. The results are the mean and standard error of the mean of three technical replicates. Nod1 agonist: C12-iE-DAP (20 μg/mL, 39.8 μM); HBP: D-glycero-1-D-manno-heptose-1β,7-bi-phosphate.
as §3, with “Stimulation” for “FIG. 37: Stimulation”, “ELISA (FIG. 37).” for “ELISA.”, “Nod1 agonist: C12-iE-DAP (20 μg/mL, 39.8 μM); HBP: D-glycero-1-D-manno-heptose-1β,7-bi-phosphate.” left out

For assay [2], the system named is NF-κB-driven luciferase reporter in HEK 293T cells. Description: NF-κB-driven luciferase reporter assay in HEK 293T cells. The class given is cell-based. The conditions noted are these: 20 μg/mL synthetic compound, 20 minutes in permeabilization buffer (5 μg/mL digitonin), then 3.5 hours in complete medium; FIG. 35. On the procedure: FIG. 35: Effects of compounds/products according to the invention on HEK 293T cells encoding an NF-κB-driven luciferase reporter gene. HEK 293T cells were transfected with a plasmid encoding an NF-κB-driven luciferase reporter. After 24 hours, cells were stimulated for 20 minutes in permeabilization buffer (5 μg/mL digitonin) in the presence of culture supernatant from N. meningitidis mutants with (gmhB) or without (hldA) HBP or 20 μg/mL of synthetic compounds according to the invention. Treatment was removed; cells were washed and incubated for 3.5 hours in complete medium. A luciferase assay was then performed. The results are mean of technical triplicates.
HEK 293T cells were transfected with a plasmid encoding an NF-κB-driven luciferase reporter. After 24 hours, cells were stimulated for 20 minutes in permeabilization buffer (5 μg/mL digitonin) in the presence of culture supernatant from N. meningitidis mutants with (gmhB) or without (hldA) HBP or 20 μg/mL of synthetic compound according to the invention. Treatment was removed; cells were washed and incubated for 3.5 hours in complete medium. A luciferase assay was then performed. The results obtained are illustrated in FIG. 35. They are mean of technical triplicates.

For the next assay, the system named is HCT 116 cells. Kind of assay: IL-8 ELISA after stimulation of human colonic epithelial cells (HCT 116, WT or TIFA KO). In kind it is cell-based. As to conditions: 10 μg/mL synthetic compound, 20 minutes with digitonin, then 6 hours, FIG. 36. On the procedure:
(§4) FIG. 36: Stimulation of human colonic epithelial cells by compounds/products according to the invention. Human colonic epithelial cells (HCT 116) that were either wild type (WT) or deficient in TIFA protein expression (knockout, KO) were stimulated for 20 minutes in permeabilization buffer (5 μg/mL digitonin) in the presence of culture supernatant from N. meningitidis mutants with (gmhB) or without (hldA) HBP or 10 μg/mL of synthetic compound according to the invention. Treatment was removed, cells were washed, and cells were incubated for 6 hours in complete media and IL-8 levels in culture supernatants were measured by ELISA. The results are mean of technical duplicates.
as §4, with “Human” for “FIG. 36: Stimulation of human colonic epithelial cells by compounds/products according to the invention. Human”, “results obtained are illustrated in FIG. 36. They” for “results”

In a further assay the test system is N. meningitidis. Kind of assay: Challenge of immunized mice with N. meningitidis strain expressing matching TbpB (sepsis model). The class given is in vivo, C57BL/6NCrl mice. As to conditions: TbpB with adjuvant as opposed to TbpB alone. The protocol: as §1, §2

Take `O=P(O)(O)OC[C@@H](O)[C@H]1O[C@@H](OP(=O)(O)O)[C@@H](O)[C@@H](O)[C@@H]1O` [HBP, D-glycero-D-manno-heptopyranose 1β,7-bisphosphate]: the “IgG titers to TbpB” value in assay [1] was “significantly higher than administration of TbpB alone and greater than observed with alum as the adjuvant”. Besides, the “cytokine expression (IL-8 levels in culture supernatants)” value in the assay with THP-1 cells and with HCT 116 cells was “can drive cytokine expression in vitro” throughout. In assay [2], the “NF-κB stimulation (luciferase assay)” value is given as “can immunomodulate via NF-κB stimulation in vitro”. Moreover, in the assay on N. meningitidis (challenge D36, 12 h post challenge, FIG. 38C), the clinical scores entry was “lower”. In the assay with N. meningitidis (challenge D36 with 5×10^7 N. meningitidis, blood at 1 h, FIG. 38B), the “bacterial burden (CFU in blood)” value is “reduced”.
